Assay results as given in ChEMBL document CHEMBL4507295 (2021).

Assays:
Settings in all cases: Compound concentration 1000.0 nM
[1] = target: RAC-gamma serine/threonine-protein kinase (Homo sapiens) (UniProt Q9Y243)
[2] = target: Hormonally up-regulated neu tumor-associated kinase (Homo sapiens) (UniProt P57058)
[3] = target: Receptor-type tyrosine-protein kinase FLT3 (Homo sapiens) (UniProt P36888)
[4] = target: Inhibitor of nuclear factor kappa-B kinase subunit beta (Homo sapiens) (UniProt O14920)
[5] = system: Epidermal growth factor receptor (Homo sapiens), P00533 [UNDEFINED MUTATION]
[6] = target: Bone morphogenetic protein receptor type-1B (Homo sapiens) (UniProt O00238)
[7] = target: MAP kinase-activated protein kinase 2 (Homo sapiens) (UniProt P49137)
Chain of MAP kinase-activated protein kinase 2 (Homo sapiens) (P49137 whole entry, looked up): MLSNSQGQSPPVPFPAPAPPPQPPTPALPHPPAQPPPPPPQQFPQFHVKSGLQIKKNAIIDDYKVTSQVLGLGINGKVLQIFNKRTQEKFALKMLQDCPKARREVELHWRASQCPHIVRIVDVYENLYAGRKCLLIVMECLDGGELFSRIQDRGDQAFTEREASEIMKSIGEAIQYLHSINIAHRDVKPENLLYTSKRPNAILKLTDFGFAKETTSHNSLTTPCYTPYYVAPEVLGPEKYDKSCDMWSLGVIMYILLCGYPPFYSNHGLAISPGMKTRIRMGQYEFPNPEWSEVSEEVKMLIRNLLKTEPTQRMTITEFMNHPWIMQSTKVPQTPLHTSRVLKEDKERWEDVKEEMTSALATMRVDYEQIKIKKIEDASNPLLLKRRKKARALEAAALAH

[8] = target: Interleukin-1 receptor-associated kinase 3 (Homo sapiens) (UniProt Q9Y616)
[9] = target: Tyrosine-protein kinase Lyn (Homo sapiens) (UniProt P07948)
[10] = target: Protein kinase C delta type (Homo sapiens) (UniProt Q05655)
[11] = target: Serine/threonine-protein kinase TAO3 (Homo sapiens) (UniProt Q9H2K8)
[12] = target: Phosphatidylinositol 4-phosphate 5-kinase type-1 gamma (Homo sapiens) (UniProt O60331)
[13] = system: Mast/stem cell growth factor receptor Kit (Homo sapiens), P10721 [A829P]
[14] = target: Calcium/calmodulin-dependent protein kinase type 1G (Homo sapiens) (UniProt Q96NX5)
[15] = target: Insulin receptor (Homo sapiens) (UniProt P06213)
[16] = target: Ribosomal protein S6 kinase alpha-5 (Homo sapiens) (UniProt O75582)
Chain of Ribosomal protein S6 kinase alpha-5 (Homo sapiens) (O75582 whole entry, looked up): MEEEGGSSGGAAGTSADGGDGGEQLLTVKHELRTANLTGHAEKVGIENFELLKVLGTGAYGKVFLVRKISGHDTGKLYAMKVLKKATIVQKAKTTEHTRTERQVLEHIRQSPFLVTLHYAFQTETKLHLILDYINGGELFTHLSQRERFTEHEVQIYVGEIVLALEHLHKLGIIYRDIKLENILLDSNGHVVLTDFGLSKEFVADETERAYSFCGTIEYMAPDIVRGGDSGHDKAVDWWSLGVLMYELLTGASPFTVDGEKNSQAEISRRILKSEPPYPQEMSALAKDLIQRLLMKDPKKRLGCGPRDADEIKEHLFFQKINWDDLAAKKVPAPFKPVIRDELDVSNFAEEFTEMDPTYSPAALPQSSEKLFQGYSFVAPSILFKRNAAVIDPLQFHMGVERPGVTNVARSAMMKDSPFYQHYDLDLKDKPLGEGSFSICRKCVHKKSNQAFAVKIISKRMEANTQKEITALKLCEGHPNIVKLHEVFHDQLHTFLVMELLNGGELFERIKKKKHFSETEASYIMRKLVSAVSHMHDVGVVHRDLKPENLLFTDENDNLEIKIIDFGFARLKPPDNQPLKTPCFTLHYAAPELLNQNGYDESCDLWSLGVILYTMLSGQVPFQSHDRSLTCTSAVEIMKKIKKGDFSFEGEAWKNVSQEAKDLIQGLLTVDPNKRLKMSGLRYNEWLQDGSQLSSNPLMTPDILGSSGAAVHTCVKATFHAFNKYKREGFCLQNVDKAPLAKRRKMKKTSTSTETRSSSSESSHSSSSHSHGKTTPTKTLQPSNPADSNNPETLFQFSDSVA

[17] = target: Mitogen-activated protein kinase 12 (Homo sapiens) (UniProt P53778)
[18] = system: Phosphatidylinositol 4,5-bisphosphate 3-kinase catalytic subunit alpha isoform (Homo sapiens), P42336 [Q546K]
[19] = target: Serine/threonine-protein kinase LATS2 (Homo sapiens) (UniProt Q9NRM7)
[20] = target: Wee1-like protein kinase 2 (Homo sapiens) (UniProt P0C1S8)
[21] = target: LIM domain kinase 1 (Homo sapiens) (UniProt P53667)
[22] = target: Serine/threonine-protein kinase PAK 1 (Homo sapiens) (UniProt Q13153)
[23] = system: Fibroblast growth factor receptor 3 (Homo sapiens), P22607 [G697C]
[24] = target: Phosphatidylinositol 4-phosphate 3-kinase C2 domain-containing subunit beta (Homo sapiens) (UniProt O00750)
Chain of Phosphatidylinositol 4-phosphate 3-kinase C2 domain-containing subunit beta (Homo sapiens) (O00750 whole entry, the tested form may be a part): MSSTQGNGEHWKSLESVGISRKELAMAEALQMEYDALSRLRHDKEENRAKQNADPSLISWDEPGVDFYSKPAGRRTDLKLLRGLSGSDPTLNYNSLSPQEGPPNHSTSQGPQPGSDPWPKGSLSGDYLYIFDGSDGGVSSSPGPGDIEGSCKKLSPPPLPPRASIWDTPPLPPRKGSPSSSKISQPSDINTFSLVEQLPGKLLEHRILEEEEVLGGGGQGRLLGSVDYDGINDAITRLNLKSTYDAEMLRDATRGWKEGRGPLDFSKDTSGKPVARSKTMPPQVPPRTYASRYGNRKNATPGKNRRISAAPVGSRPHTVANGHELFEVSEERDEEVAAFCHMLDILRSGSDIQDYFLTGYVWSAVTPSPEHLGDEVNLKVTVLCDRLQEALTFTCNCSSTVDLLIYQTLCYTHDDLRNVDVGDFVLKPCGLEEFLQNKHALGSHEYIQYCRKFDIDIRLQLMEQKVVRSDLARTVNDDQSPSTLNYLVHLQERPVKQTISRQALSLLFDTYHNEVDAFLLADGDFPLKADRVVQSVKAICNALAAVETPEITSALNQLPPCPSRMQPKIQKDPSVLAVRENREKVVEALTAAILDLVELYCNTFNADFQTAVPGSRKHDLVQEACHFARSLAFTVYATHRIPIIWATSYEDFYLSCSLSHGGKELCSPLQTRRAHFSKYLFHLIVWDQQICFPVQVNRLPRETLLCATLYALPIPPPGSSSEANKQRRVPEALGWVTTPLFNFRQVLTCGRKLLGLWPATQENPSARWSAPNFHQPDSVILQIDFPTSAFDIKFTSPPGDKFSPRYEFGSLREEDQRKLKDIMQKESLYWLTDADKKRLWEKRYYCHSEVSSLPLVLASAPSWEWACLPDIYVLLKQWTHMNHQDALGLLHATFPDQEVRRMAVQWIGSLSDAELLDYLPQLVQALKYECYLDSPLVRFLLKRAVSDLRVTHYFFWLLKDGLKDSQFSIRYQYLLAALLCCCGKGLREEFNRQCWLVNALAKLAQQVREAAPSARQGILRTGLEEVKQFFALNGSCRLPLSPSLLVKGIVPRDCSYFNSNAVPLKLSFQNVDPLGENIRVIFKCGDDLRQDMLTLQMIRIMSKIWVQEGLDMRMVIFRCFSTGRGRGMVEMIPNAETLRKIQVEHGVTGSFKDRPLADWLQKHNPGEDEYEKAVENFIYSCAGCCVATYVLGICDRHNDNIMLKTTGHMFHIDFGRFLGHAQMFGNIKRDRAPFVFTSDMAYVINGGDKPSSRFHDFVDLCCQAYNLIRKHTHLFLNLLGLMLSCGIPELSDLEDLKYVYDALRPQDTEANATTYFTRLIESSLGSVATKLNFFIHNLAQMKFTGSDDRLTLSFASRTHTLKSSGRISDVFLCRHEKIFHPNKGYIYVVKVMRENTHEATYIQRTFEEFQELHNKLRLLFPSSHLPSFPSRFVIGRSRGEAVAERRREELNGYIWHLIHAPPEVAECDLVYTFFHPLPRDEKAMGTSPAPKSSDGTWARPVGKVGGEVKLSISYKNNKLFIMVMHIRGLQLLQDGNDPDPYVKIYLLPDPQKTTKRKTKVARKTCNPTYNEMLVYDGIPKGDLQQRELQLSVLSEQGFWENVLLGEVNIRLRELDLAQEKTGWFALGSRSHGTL

[25] = target: Microtubule-associated serine/threonine-protein kinase 1 (Homo sapiens) (UniProt Q9Y2H9)
[26] = target: Myosin light chain kinase family member 4 (Homo sapiens) (UniProt Q86YV6)
[27] = target: Phosphatidylinositol 4,5-bisphosphate 3-kinase catalytic subunit delta isoform (Homo sapiens) (UniProt O00329)
[28] = system: Epidermal growth factor receptor (Homo sapiens), P00533 [L858R,T790M]
[29] = target: Mast/stem cell growth factor receptor Kit (Homo sapiens) (UniProt P10721)
[30] = target: Serine/threonine-protein kinase mTOR (Homo sapiens) (UniProt P42345)
[31] = target: Serine/threonine-protein kinase 36 (Homo sapiens) (UniProt Q9NRP7)
[32] = target: Tyrosine-protein kinase CSK (Homo sapiens) (UniProt P41240)
Chain of Tyrosine-protein kinase CSK (Homo sapiens) (P41240 2-450 limits assumed): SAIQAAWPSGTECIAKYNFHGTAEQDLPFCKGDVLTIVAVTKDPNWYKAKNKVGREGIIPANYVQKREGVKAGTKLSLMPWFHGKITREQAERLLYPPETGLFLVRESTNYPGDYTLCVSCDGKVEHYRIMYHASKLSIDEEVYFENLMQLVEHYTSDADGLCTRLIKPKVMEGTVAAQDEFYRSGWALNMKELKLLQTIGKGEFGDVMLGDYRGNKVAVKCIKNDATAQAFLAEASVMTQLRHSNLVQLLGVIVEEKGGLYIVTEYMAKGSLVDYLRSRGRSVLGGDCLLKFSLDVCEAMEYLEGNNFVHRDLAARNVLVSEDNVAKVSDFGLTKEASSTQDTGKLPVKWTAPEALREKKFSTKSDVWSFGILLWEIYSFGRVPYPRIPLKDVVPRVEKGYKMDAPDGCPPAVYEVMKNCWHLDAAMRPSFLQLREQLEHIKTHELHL

[33] = target: Mitogen-activated protein kinase 3 (Homo sapiens) (UniProt P27361)
[34] = system: Receptor-type tyrosine-protein kinase FLT3 (Homo sapiens), P36888 [UNDEFINED MUTATION]
[35] = target: Tyrosine-protein kinase receptor Tie-1 (Homo sapiens) (UniProt P35590)
[36] = target: Serine/threonine-protein kinase MARK2 (Homo sapiens) (UniProt Q7KZI7)
[37] = target: Tyrosine-protein kinase JAK1 (Homo sapiens) (UniProt P23458)
[38] = target: Cyclin-dependent kinase 4 (Homo sapiens) (UniProt P11802)
Chain of Cyclin-dependent kinase 4 (Homo sapiens) (P11802 whole entry): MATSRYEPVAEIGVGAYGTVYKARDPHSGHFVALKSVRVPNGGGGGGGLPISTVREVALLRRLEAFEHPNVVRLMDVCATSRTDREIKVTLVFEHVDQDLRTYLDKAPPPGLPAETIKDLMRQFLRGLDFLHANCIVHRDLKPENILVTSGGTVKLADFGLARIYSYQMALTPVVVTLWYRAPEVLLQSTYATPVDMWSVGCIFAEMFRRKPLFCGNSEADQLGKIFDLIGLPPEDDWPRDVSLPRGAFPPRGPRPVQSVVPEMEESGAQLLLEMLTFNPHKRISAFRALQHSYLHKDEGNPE

[39] = target: MAP kinase-activated protein kinase 5 (Homo sapiens) (UniProt Q8IW41)
[40] = target: Dual specificity mitogen-activated protein kinase kinase 1 (Homo sapiens) (UniProt Q02750)
[41] = target: Non-receptor tyrosine-protein kinase TYK2 (Homo sapiens) (UniProt P29597)
Chain of Non-receptor tyrosine-protein kinase TYK2 (Homo sapiens) (P29597 whole entry): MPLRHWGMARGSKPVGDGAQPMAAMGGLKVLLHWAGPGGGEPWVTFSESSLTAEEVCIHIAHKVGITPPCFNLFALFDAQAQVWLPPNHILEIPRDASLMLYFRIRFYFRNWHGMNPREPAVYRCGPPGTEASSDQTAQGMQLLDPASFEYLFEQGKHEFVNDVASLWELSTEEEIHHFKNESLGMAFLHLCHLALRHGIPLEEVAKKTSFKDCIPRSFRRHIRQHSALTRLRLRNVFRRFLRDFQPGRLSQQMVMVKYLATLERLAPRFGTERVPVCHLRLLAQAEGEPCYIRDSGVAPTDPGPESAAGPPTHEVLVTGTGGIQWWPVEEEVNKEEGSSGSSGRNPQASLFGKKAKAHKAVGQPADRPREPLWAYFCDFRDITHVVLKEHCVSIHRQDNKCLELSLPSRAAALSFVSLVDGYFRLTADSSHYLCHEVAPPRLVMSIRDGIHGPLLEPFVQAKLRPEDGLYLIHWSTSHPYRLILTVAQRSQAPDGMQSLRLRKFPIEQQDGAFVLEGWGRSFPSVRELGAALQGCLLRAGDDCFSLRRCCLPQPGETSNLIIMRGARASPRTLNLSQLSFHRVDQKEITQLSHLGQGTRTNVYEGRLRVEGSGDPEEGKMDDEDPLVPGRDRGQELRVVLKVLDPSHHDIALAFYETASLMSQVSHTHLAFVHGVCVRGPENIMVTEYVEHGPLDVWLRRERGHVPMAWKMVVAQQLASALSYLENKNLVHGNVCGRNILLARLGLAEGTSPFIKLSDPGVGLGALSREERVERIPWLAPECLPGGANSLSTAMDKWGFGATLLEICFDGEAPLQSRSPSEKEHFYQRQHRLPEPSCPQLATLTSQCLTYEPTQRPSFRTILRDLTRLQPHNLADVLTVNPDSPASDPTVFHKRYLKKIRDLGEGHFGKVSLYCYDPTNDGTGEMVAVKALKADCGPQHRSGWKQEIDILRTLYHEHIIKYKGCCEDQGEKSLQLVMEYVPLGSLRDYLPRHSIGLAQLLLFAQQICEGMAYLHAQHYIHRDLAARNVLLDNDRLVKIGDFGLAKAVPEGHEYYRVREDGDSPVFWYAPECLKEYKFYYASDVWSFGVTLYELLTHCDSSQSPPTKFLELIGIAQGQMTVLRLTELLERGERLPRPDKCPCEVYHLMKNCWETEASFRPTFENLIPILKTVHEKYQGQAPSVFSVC

[42] = target: Calcium-dependent protein kinase 1 (Plasmodium falciparum) (UniProt P62344)
[43] = target: Serine/threonine-protein kinase 3 (Homo sapiens) (UniProt Q13188)
[44] = target: Tyrosine-protein kinase ZAP-70 (Homo sapiens) (UniProt P43403)

Measured: residual activity

N#CC1(c2ccccn2)CCN(Cc2cc(C(=O)N3CCCC3)c(=O)n3ccccc23)CC1
inactive: [1] 74% | [2] 79% | [3] 86% | [4] 99% | [5] 94% | [6] 95% | [7] 84% | [8] 100% | [9] 99% | [10] 95% | [11] 100% | [12] 68% | [13] 50% | [14] 100% | [15] 88% | [16] 90% | [17] 100% | [18] 94% | [19] 93% | [20] 91% | [21] 98% | [22] 100% | [23] 98% | [24] 100% | [25] 82% | [26] 95% | [27] 61% | [28] 100% | [29] 100% | [30] 58% | [31] 98% | [32] 91% | [33] 91% | [34] 100% | [35] 98% | [36] 100% | [37] 95% | [38] 100% | [39] 100% | [40] 100% | [41] 100% | [42] 84% | [43] 92% | [44] 100%

N#CC1(c2ccccn2)CCN(Cc2cc(C(=O)O)c(=O)n3ccccc23)CC1 [MSD-M1PAM]
inactive: [1] 100% | [2] 100% | [3] 85% | [4] 100% | [5] 80% | [6] 67% | [7] 75% | [8] 100% | [9] 100% | [10] 100% | [11] 78% | [12] 89% | [13] 84% | [14] 100% | [15] 74% | [16] 83% | [17] 78% | [18] 58% | [19] 95% | [20] 100% | [21] 100% | [22] 86% | [23] 100% | [24] 97% | [25] 50% | [26] 100% | [27] 91% | [28] 71% | [29] 87% | [30] 90% | [31] 100% | [32] 100% | [33] 100% | [34] 92% | [35] 100% | [36] 100% | [37] 100% | [38] 100% | [39] 56% | [40] 95% | [41] 93% | [42] 88% | [43] 98% | [44] 100%
